The target in the experiment is T1, EP4R (Homo sapiens, UniProt P35408).
T1 construct: Tango fusion cassette (only 'tango' is printed); expressed in transfected cells; host or cells: HTLA cells (tTA-dependent luciferase reporter, β-arrestin2-TEV fusion)
As to the kind of experiment: biochemical. It counts as binding. To be noted: for inhibition at 10 µM: read-out: % displacement of 3HPGE2 at 10 µM, 10 µM compound vs 10 nM 3H-PGE2.

Structures are written as SMILES.

T1 sequence (P35408 whole entry, the tested form may be a part): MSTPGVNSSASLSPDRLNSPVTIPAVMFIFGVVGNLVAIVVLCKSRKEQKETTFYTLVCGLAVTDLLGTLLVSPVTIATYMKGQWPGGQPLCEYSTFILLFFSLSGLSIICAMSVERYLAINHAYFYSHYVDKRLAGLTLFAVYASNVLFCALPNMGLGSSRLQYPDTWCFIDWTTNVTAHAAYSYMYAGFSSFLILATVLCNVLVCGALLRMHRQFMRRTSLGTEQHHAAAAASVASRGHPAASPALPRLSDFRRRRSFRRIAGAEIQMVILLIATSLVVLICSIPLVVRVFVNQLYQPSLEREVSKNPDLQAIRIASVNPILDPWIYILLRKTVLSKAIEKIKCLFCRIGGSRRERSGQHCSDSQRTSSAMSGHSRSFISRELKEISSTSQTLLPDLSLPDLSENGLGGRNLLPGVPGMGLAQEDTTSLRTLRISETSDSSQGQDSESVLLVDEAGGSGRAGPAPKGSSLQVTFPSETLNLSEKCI

With `CC(NC(=O)C1CC2(CC(C(=O)O)C2)C1)c1ccc(C(F)(F)F)s1` (stereo not drawn) [Compound 34, CC(NC(=O)C1CC2(CC(C2)C(=O)O)C1)C3=CC=C(S3)C(F)(F)F], the inhibition at 10 µM was -6.1%.

Turning to `CC1(COC(=O)c2ccc(NS(C)(=O)=O)nc2)CC1(F)Cl` (stereo not drawn) [Compound 7, CC1(COC(=O)C=2C=CC(NS(=O)(=O)C)=NC2)CC1(F)Cl], the inhibition at 10 µM is -18.4%.

With `O=C(O)[C@H]1C[C@@H](C(=O)N(Cc2ccsc2)c2ccccc2)C1` [Compound 33, OC(=O)[C@H]1C[C@H](C1)C(=O)N(CC=2C=CSC2)C=3C=CC=CC3], where the note is “10 µM compound vs 10 nM 3H-PGE2”, the “% displacement of 3HPGE2 at 10 µM” value is listed as -8.1%.

`O=C(O)C1(n2cc(Cc3ccc(F)cc3F)cn2)CCC(c2ccccc2)CC1` (stereo not drawn) [Compound 1, OC(=O)C1(CCC(CC1)C=2C=CC=CC2)N3C=C(CC=4C=CC(F)=CC4F)C=N3]: the inhibition at 10 µM is -28.7%.

For the molecule `CC1(C(=O)O)CC(NS(=O)(=O)c2cc3cc(Cl)ccc3s2)CCO1` (stereo not drawn) [Compound 38, CC1(CC(CCO1)NS(=O)(=O)C2=CC=3C=C(Cl)C=CC3S2)C(=O)O], the inhibition at 10 µM is -5.2%.

As to `COc1ccc(Cl)cc1C(Nc1ncc(C(=O)O)s1)c1ccccc1` (stereo not drawn) [Compound 10, COC=1C=CC(Cl)=CC1C(NC2=NC=C(S2)C(=O)O)C=3C=CC=CC3], the inhibition at 10 µM is -17.8%.

`Cc1cccc(C2(C(=O)NC3CCSC4(C3)CC(C(=O)O)C4)CC2)c1` (stereo not drawn) [Compound 45, CC=1C=CC=C(C1)C2(CC2)C(=O)NC3CCSC4(CC(C4)C(=O)O)C3]: the inhibition at 10 µM is -1.8%.

Regarding `CN(c1cccc(CC(=O)O)c1)S(=O)(=O)CC1Cc2ccccc2C1` [Compound 23, CN(C=1C=CC=C(CC(=O)O)C1)S(=O)(=O)CC2CC=3C=CC=CC3C2], the inhibition at 10 µM is -11.1%.

As for `CC(c1cn(-c2ccccc2)nn1)N1CCN(C(=O)C(=O)O)CC1` (stereo not drawn) [Compound 49, CC(N1CCN(CC1)C(=O)C(=O)O)C2=CN(N=N2)C=3C=CC=CC3], the inhibition at 10 µM turned out to be 0.8%.

As for `CN(C(=O)CSc1nnc(S)s1)c1ccc2ccccc2c1` [Compound 36, CN(C(=O)CSC1=NN=C(S)S1)C=2C=CC=3C=CC=CC3C2], the inhibition at 10 µM was -5.8%.

As for `COc1ccc(-c2cc(CS(=O)(=O)c3nnc(C)[nH]3)on2)cc1` [Compound 22, COC=1C=CC(=CC1)C=2C=C(CS(=O)(=O)C3=NN=C(C)N3)ON2], the inhibition at 10 µM was -11.6%.

Take `CN(C(=O)C1CCCC1Cc1ccccc1)[C@H]1C[C@@H](C(=O)O)C1` (stereo partly drawn) [Compound 40, CN([C@H]1C[C@H](C1)C(=O)O)C(=O)C2CCCC2CC=3C=CC=CC3]: the inhibition at 10 µM is -4%.

For the molecule `O=C(O)Cc1ccc(C=C2C(=O)N3CCCc4cccc2c43)cc1` [Compound 42, OC(=O)CC=1C=CC(C=C2C(=O)N3CCCC=4C=CC=C2C34)=CC1], the inhibition at 10 µM was -3.2%.

On to `NC(=O)c1cc(C(=O)Nc2ccc(CC(=O)O)cc2)nn1-c1ccccc1` [Compound 6, NC(=O)C1=CC(=NN1C=2C=CC=CC2)C(=O)NC=3C=CC(CC(=O)O)=CC3], for which the inhibition at 10 µM is -18.8%.

On to `O=C(O)CSc1nc2cc(Cl)ccc2n1Cc1ccccc1` [Compound 39, OC(=O)CSC1=NC=2C=C(Cl)C=CC2N1CC=3C=CC=CC3], for which the inhibition at 10 µM is -4.9%.

`CC(CN(C(=O)c1ccn(-c2ccccc2)n1)C1CC1)C(=O)O` (stereo not drawn) [Compound 17, CC(CN(C1CC1)C(=O)C=2C=CN(N2)C=3C=CC=CC3)C(=O)O]: the inhibition at 10 µM is -14%.

Take `Cc1c(C(=O)N(C)c2nnn[nH]2)cnn1-c1ccc(Cl)cc1` [Compound 69, CN(C(=O)C=1C=NN(C1C)C=2C=CC(Cl)=CC2)C3=NN=NN3]: the inhibition at 10 µM is 37.7%.

On to `CC(CN(C(=O)CCc1ccc2ccccc2c1)C1CC1)C(=O)O` (stereo not drawn) [Compound 19, CC(CN(C1CC1)C(=O)CCC=2C=CC=3C=CC=CC3C2)C(=O)O], for which the inhibition at 10 µM was -13.2%.

In the case of `CC(C)(Oc1ccc(F)cc1)C(=O)N1CC(CC(=O)O)c2ccccc21` (stereo not drawn) [Compound 60, CC(C)(OC=1C=CC(F)=CC1)C(=O)N2CC(CC(=O)O)C=3C=CC=CC23], the inhibition at 10 µM worked out at 13.8%.

In the case of `O=C(O)CCc1cccc(NC(=O)c2c(C(F)(F)F)nc3n2CCCC3)c1` [Compound 5, OC(=O)CCC=1C=CC=C(NC(=O)C2=C(N=C3CCCCN23)C(F)(F)F)C1], the inhibition at 10 µM is -19%.

Turning to `O=C(O)C1CC2(CC(NS(=O)(=O)C=Cc3ccc(F)cc3)CCS2)C1` (stereo not drawn) [Compound 57, OC(=O)C1CC2(C1)CC(CCS2)NS(=O)(=O)C=CC=3C=CC(F)=CC3], the inhibition at 10 µM came to 9%.

For `Cc1nn(CC(F)(F)F)c(C)c1CC(=O)N(C1CC1)C(C)C(=O)O` (stereo not drawn) [Compound 43, CC(N(C1CC1)C(=O)CC=2C(C)=NN(CC(F)(F)F)C2C)C(=O)O], the inhibition at 10 µM is -2.6%.

`CC1CC(C(=O)O)CN(C(=O)C2(c3cccc(C(F)(F)F)c3)CC2)C1` (stereo not drawn) [Compound 3, CC1CC(CN(C1)C(=O)C2(CC2)C=3C=CC=C(C3)C(F)(F)F)C(=O)O]: the inhibition at 10 µM was -22.5%.

`O=C(NC1CC(C(=O)O)C1)N[C@@H]1CCC[C@@H]1n1cccn1` (stereo partly drawn) [Compound 4, OC(=O)C1CC(C1)NC(=O)N[C@@H]2CCC[C@@H]2N3C=CC=N3]: the inhibition at 10 µM is -21.9%.

For the molecule `O=C(Nc1cccc(-n2nn[nH]c2=O)c1)C1(c2ccccn2)CC1` [Compound 32, O=C(NC=1C=CC=C(C1)N2N=NNC2=O)C3(CC3)C=4C=CC=CN4], the inhibition at 10 µM was -8.5%.

For the molecule `CCc1ncc(CN(CC(=O)O)C(=O)OCc2cccnc2)s1` [Compound 2, CCC1=NC=C(CN(CC(=O)O)C(=O)OCC=2C=CC=NC2)S1], the inhibition at 10 µM is -23.1%.

Regarding `CCc1ccc(C(=O)Nc2cccc(-c3nnn[nH]3)c2)c(C)n1` [Compound 63, CCC=1C=CC(C(=O)NC=2C=CC=C(C2)C3=NN=NN3)=C(C)N1], the inhibition at 10 µM amounted to 19.3%.

In the case of `O=C(NCc1ccc(C(F)F)cc1)NC[C@H]1CC[C@H](C(=O)O)CC1` [Compound 41, OC(=O)[C@H]1CC[C@H](CNC(=O)NCC=2C=CC(=CC2)C(F)F)CC1], the inhibition at 10 µM is -3.4%.

As to `c1ccc(-c2nc(SCc3nnn[nH]3)oc2-c2ccccc2)cc1` [Compound 20, C(SC1=NC(=C(O1)C=2C=CC=CC2)C=3C=CC=CC3)C4=NN=NN4], the inhibition at 10 µM is -12.7%.

For `O=C(O)CCC(Cc1ccccc1)NS(=O)(=O)C=Cc1ccccc1Cl` (stereo not drawn) [Compound 55, OC(=O)CCC(CC=1C=CC=CC1)NS(=O)(=O)C=CC=2C=CC=CC2Cl], the inhibition at 10 µM turned out to be 7.6%.

Consider `CC1(C(=O)O)CCN(C(=O)C(O)c2ccc(Cl)c(Br)c2)C1` (stereo not drawn) [Compound 14, CC1(CCN(C1)C(=O)C(O)C=2C=CC(Cl)=C(Br)C2)C(=O)O], for which the inhibition at 10 µM was -14.7%.

On to `CC(CN(Cc1ccccc1)C(=O)COc1ccc(Cl)c2cccnc12)C(=O)O` (stereo not drawn) [Compound 35, CC(CN(CC=1C=CC=CC1)C(=O)COC=2C=CC(Cl)=C3C=CC=NC23)C(=O)O], for which the inhibition at 10 µM is -5.8%.

As for `O=C(O)c1ccc(C2CCCN2S(=O)(=O)c2ccccc2-c2ccno2)s1` (stereo not drawn) [Compound 30, OC(=O)C1=CC=C(S1)C2CCCN2S(=O)(=O)C=3C=CC=CC3C4=CC=NO4], the inhibition at 10 µM is -10.1%.

For `CC(CN(C)c1nc(C(F)(F)F)cs1)C(=O)O` (stereo not drawn) [Compound 9, CC(CN(C)C1=NC(=CS1)C(F)(F)F)C(=O)O], the inhibition at 10 µM was -18.1%.

For the molecule `CC(c1nc(-c2cccc(C(F)(F)F)c2)no1)S(=O)(=O)c1nnc[nH]1` (stereo not drawn) [Compound 50, CC(C1=NC(=NO1)C=2C=CC=C(C2)C(F)(F)F)S(=O)(=O)C3=NN=CN3], the inhibition at 10 µM is 0.9%.

In the case of `O=C(O)c1cc(NS(=O)(=O)c2cnc3ccsc3c2)ccc1O` [Compound 27, OC(=O)C=1C=C(NS(=O)(=O)C=2C=NC=3C=CSC3C2)C=CC1O], the inhibition at 10 µM is -10.4%.

For `Cc1ccc(-n2nc(C(=O)Nc3ccc(CC(=O)O)cc3)c3c2CCC3)cc1` [Compound 64, CC=1C=CC(=CC1)N2N=C(C(=O)NC=3C=CC(CC(=O)O)=CC3)C=4CCCC42], the inhibition at 10 µM came to 20%.

Take `Cc1ccc(-n2c(SCc3nnn[nH]3)nc3ccccc3c2=O)cc1` [Compound 11, CC=1C=CC(=CC1)N2C(SCC3=NN=NN3)=NC=4C=CC=CC4C2=O]: the inhibition at 10 µM was -17.6%.

For the molecule `O=C(O)Cc1ccc(NC(=O)c2cncc(-c3ccccc3)c2)cc1` [Compound 51, OC(=O)CC=1C=CC(NC(=O)C=2C=NC=C(C2)C=3C=CC=CC3)=CC1], the inhibition at 10 µM amounted to 1%.

As for `COc1ccccc1CN(Cc1cccs1)C(=O)Cc1cccc(C(=O)O)c1` [Compound 52, COC=1C=CC=CC1CN(CC2=CC=CS2)C(=O)CC=3C=CC=C(C3)C(=O)O], the inhibition at 10 µM was found to be 1.2%.

On to `COC(C(=O)N(C1CC1)C(C)C(=O)O)c1cnn(C)c1` (stereo not drawn) [Compound 25, COC(C(=O)N(C(C)C(=O)O)C1CC1)C=2C=NN(C)C2], for which the inhibition at 10 µM is -10.6%.

With `Cn1nnnc1NCC(C(=O)OCc1ccccc1)c1ccccc1` (stereo not drawn) [Compound 67, CN1N=NN=C1NCC(C(=O)OCC=2C=CC=CC2)C=3C=CC=CC3], the inhibition at 10 µM worked out at 31.5%.

`O=C(O)CCC1CCCN(C(=O)c2nn(-c3ccccc3)c3c2CCC3)C1` (stereo not drawn) [Compound 61, OC(=O)CCC1CCCN(C1)C(=O)C2=NN(C=3CCCC23)C=4C=CC=CC4]: the inhibition at 10 µM amounted to 15.1%.

For the molecule `CC(CN(C(=O)c1cc2c(C(F)F)nn(C)c2s1)C1CC1)C(=O)O` (stereo not drawn) [Compound 24, CC(CN(C1CC1)C(=O)C2=CC=3C(=NN(C)C3S2)C(F)F)C(=O)O], the inhibition at 10 µM was -10.7%.

For `CN(C(=O)c1cc(N2CCCC2=O)cc(C(F)(F)F)c1)c1nnn[nH]1` [Compound 44, CN(C(=O)C=1C=C(C=C(C1)C(F)(F)F)N2CCCC2=O)C3=NN=NN3], the inhibition at 10 µM is -2.6%.

For the molecule `O=C(O)c1ccc(-c2ccc(C=C3CSc4ccc(F)cc4C3=O)o2)cc1O` [Compound 56, OC(=O)C=1C=CC(=CC1O)C2=CC=C(C=C3CSC=4C=CC(F)=CC4C3=O)O2], the inhibition at 10 µM was found to be 7.9%.

As to `O=C(O)c1cc(NS(=O)(=O)c2ccc(Br)cc2F)ccc1O` [Compound 53, OC(=O)C=1C=C(NS(=O)(=O)C=2C=CC(Br)=CC2F)C=CC1O], the inhibition at 10 µM was found to be 2.8%.

For the molecule `CN(C(=O)c1nc(C2CC2)n(-c2ccccc2Cl)n1)c1nnn[nH]1` [Compound 46, CN(C(=O)C=1N=C(C2CC2)N(N1)C=3C=CC=CC3Cl)C4=NN=NN4], the inhibition at 10 µM was -1.5%.

The record behind these values is PMC10700596 (Nature Communications, 2023).
